Converted amounts (≈) assume the structure as drawn.
What was measured:
[1] = system: primary human fibroblasts; experiment: Cell viability study in primary human fibroblasts; format: cell-based; settings: increasing concentrations, 48 h, relative to the untreated control
Protocol: Primary human fibroblast (seeded at density 5,000 cells/well) and primary human keratinocytes (at density 2,000 cells/well) were used for the cytotoxicity studies in vitro. The culture media used for the keratinocytes was keratinocyte serum free medium supplemented with L-glutamine, EGF and BPE while that for fibroblasts was Dulbecco's Modified Eagle's Medium-high glucose supplemented with 2% penicillin/streptomycin and 5% FBS. Cells were incubated in a humidified incubator under 5% CO2 at 37° C. After 24 h, 50 μL of the media were withdrawn and replaced by 50 ul of increasing concentrations of each treatment reaching a final volume of 100 μL in the well. Cells were incubated for 48 h under standard cell culture conditions after which cell viability was assessed by AB assay as previously described.

[2] = system: BMDM; experiment: Viability of BMDM after 48 h treatment; format: cell-based
Protocol: Immune cells system as macrophages and dendritic cells are responsible for the initiation of immune responses, and are the prime target for immunostimulatory drugs. To verify that the HA-RES conjugate is not toxic for immune cells, BMDM were treated with increasing concentrations of RES or HA-RES for 48 h.
The inventors also tested the effect of BEX and its HA conjugate on the viability of BMDM by exposing them to increasing concentration ranging from (0.39-50 μM).

[3] = system: BMDM; experiment: BMDM polarization (M1/M2 marker expression); format: cell-based; settings: 48 hr, vs untreated cells
Protocol: To further elucidate the effect of HA-RES and HA-BEX and their combination on macrophage phenotyping the inventors studied their effect on macrophage polarization. BMDMs were treated with different concentrations of RES and HA-RES for 48 hr. (FIG. 6A)
The expression of several markers associated with M1 and M2 phenotypes was evaluated.

[4] = system: B16F10-Luc melanoma cells; experiment: Cytotoxicity study on B16F10-Luc cells; format: cell-based; settings: 48 h
Protocol: (§1) 5×10^3 B16F10-Luc cells were seeded in 96 well plates and allowed to adhere overnight. For establishment for a coculture, B16F10 cells were cocultured with BMDM at a ratio of 1:10 (5×10^3 B16F10: 5×10^4 BMDM per well). The next day, the media was aspirated and replaced with increasing concentration of the free drugs, combination and the HA-conjugates with equivalent free drug concentrations and cells were incubated with the drug solutions for 48 h after which the treatment was aspirated and replaced with 0.5% Xenolight-D-luciferin potassium salt solution in complete DMEM. Finally, cellular viability was assessed by reading the luminescence of the solution from each well after 5 min using BioTek plate reader. Untreated cells were used as controls.

[5] = system: B16F10-Luc melanoma cells cocultured with BMDM; experiment: Cytotoxicity study, B16F10-Luc cocultured with BMDM; format: cell-based; settings: coculture with BMDM; compared with B16F10 alone
Protocol: as §1

[6] = system: A431 cells; experiment: In vitro cytotoxicity on A431 cells; format: cell-based; settings: Homo sapiens, A-431; 48 h, alamar blue
Protocol: A431 cells were cultured in DMEM media supplemented with 10% FBS, 1% Pen Strep. The cells were passaged 3-4 times prior to setting up the assay. […] Cells were cultured in a humidified incubator maintained at 37° C. and 5% C02 (Thermo scientific, USA). A431 Cells (5×10^3 in 100 ul in complete DMEM) were seeded in 96 well plates and allowed to adhere overnight. The next day, cell culture media was aspirated and replaced with the different treatments. The cells were incubated with the drug solutions for 48 hr after which the treatment was aspirated and replaced with 10% alamar blue (AB) solution in complete DMEM and incubated for an additional 3.5 h in the dark at 37° C. […] Finally, cellular viability was assessed by reading the florescence of the solution from each well at λex=560 nm and λem=590 nm. […] Baseline fluorescence levels from wells without cells were subtracted from each data (Dose response curves were fit to each drug and/or polymer drug conjugate with the median effect model^[28]. For combination treatment, synergy was quantified with the combination index^[29]

[7] = background statement; cited from earlier work

Structure (SMILES) | viability of primary human dermal fibroblasts [1] | viability of BMDM ([2]; 50 uM) | viability of BMDM ([2]; all concentrations tested up to 25 uM (range 0.39-50 μM)) | expression of CD206 (M2 marker) [3] | IC50 ([4]; Mus musculus, B16-F10, luminescence viability) | IC50 in the presence of MAC [5] | IC50 [6] | aqueous solubility [7] | viability of BMDM ([2]; increasing concentrations, 48 h, all concentrations tested) | cytotoxic effect on melanoma cells ([4]; B16F10-Luc alone)
O=C(CCCCCCC(=O)Nc1ccccc1)NO [VOR, Vorinostat] | did not significantly affect the cell viability |  |  |  |  |  |  |  |  | 
C=C(c1ccc(C(=O)O)cc1)c1cc2c(cc1C)C(C)(C)CCC2(C)C [BEX, Bexarotene] | did not significantly affect the cell viability | significant decrease in the cells viability | didn't alter the viability | significant reduction | 25 µM | same IC50 | 60.3 µM | ~10 µM (≈ 3.48 µg/mL) |  | 
CCOCc1nc2c(N)nc3ccccc3c2n1CC(C)(C)O [RES, Resiquimod] |  |  |  |  |  |  |  |  | marked increase in cell viability | negligible cytotoxic effect

Source: patent publication US20230102840A1, “COMPOSITIONS AND METHODS RELATING TO COMBINATORIAL HYALURONIC ACID CONJUGATES” (PRESIDENT AND FELLOWS OF HARVARD COLLEGE, priority 2020, published 2023)
